# Source: ChEMBL document CHEMBL1148524, “Novel and selective alpha(v)beta3 receptor peptide antagonist: design, synthesis, and biological behavior” (J Med Chem, 2006)
# Target: Integrin alpha-V/beta-3 (Homo sapiens, UniProt P05106+P06756)
# Experiment: Inhibition of adhesion of K562 cells expressing alphaVbeta3 integrin receptor to vitronectin
# Assay type: cell-based
# Sequence of Integrin alpha-V/beta-3 (P05106 27-788 limits assumed): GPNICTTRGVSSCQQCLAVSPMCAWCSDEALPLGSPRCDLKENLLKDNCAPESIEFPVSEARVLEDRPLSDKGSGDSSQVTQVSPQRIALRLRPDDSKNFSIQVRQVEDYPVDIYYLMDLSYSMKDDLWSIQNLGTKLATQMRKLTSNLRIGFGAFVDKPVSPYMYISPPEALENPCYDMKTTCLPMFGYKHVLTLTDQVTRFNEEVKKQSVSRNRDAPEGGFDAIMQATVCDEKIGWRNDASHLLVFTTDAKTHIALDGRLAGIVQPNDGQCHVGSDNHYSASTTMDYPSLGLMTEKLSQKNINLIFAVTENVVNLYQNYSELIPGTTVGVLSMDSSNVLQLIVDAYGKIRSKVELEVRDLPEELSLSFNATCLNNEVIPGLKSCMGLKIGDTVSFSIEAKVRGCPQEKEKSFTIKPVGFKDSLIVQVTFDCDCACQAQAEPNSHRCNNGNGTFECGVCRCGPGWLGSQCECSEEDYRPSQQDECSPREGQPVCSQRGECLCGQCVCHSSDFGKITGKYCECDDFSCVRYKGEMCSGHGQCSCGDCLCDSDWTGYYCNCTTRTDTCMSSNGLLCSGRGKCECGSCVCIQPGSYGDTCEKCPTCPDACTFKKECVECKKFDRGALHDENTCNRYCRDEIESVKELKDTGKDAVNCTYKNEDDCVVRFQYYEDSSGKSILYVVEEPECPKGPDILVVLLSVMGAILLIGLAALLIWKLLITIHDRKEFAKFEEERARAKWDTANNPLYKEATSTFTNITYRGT
# Sequence of Integrin alpha-V/beta-3 (P06756 31-889 limits assumed): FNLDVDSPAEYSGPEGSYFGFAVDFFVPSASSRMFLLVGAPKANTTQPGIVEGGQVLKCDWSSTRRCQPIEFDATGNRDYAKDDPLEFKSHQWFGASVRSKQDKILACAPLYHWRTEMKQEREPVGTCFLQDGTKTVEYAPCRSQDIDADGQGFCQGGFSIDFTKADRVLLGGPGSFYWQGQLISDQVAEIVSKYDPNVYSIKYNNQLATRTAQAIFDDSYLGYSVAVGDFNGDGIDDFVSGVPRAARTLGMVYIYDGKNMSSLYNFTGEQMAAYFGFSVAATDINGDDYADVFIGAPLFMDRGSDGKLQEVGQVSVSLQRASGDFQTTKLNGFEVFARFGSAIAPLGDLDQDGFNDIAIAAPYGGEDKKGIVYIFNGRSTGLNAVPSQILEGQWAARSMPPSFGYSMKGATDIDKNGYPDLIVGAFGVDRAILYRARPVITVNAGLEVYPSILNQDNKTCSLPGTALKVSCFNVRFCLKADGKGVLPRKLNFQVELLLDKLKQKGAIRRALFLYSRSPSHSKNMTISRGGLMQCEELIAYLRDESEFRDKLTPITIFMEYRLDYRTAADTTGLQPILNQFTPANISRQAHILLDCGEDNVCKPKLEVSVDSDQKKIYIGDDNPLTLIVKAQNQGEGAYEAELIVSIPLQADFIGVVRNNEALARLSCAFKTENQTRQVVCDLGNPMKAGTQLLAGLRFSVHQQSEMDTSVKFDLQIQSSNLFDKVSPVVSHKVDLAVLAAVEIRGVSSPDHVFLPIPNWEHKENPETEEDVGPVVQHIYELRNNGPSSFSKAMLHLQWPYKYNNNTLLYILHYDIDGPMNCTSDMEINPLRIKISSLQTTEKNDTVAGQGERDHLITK
# Sequence of Integrin alpha-V/beta-3 (P06756 891-1048 limits assumed): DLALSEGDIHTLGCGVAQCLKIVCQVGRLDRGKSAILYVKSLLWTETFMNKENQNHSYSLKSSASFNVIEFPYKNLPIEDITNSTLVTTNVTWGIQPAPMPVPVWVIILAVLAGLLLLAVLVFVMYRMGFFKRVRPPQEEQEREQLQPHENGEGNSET
smiles,measurement,value
CSCC[C@H](NC(=O)CC[C@H]1NC(=O)[C@H](CC(=O)O)NC(=O)CNC(=O)[C@H](CCCN=C(N)N)NC(=O)[C@H](CCCCN)NC1=O)C(=O)N[C@@H](CC(=O)O)C(=O)N[C@@H](CC(=O)O)C(=O)N1CCC[C@H]1C(=O)NCC(=O)/N=C(\N)NCCC[C@H](N)C(=O)N[C@@H](CC(N)=O)C(=O)N1CCC[C@H]1C(=O)N[C@@H](Cc1c[nH]cn1)C(=O)N[C@@H](CCCCN)C(=O)NCC(=O)N1CCC[C@H]1C(=O)N[C@@H](C)C(=O)N[C@H](C(=O)O)[C@@H](C)O,IC50,880 nM
